According to patent US10407428B2, “Spiro-isoquinoline-1,4′-piperidine compounds having multimodal activity against pain” (ESTEVE PHARMACEUTICALS, S.A., priority 2014, dated 2019):

System: human σ1 receptor and human μ-opioid receptor
Experiment: Human σ1 receptor radioligand assay and human μ-opioid receptor radioligand assay (μ and σ1 dual binding)
Set-up: key to μ and σ1 dual binding: +: Both Ki-μ and Ki-σ1>=500 nM; ++: One Ki<500 nM while the other Ki is >=500 nM; +++: Both Ki-μ and Ki-σ1<500 nM; ++++: Both Ki-μ and Ki-σ1<100 nM
Settings: not given

**Q.** `CCN1CCc2ccccc2C12CCN(CCN1CCOCC1)CC2` [Example 148, 4-(2-(2-ethyl-3,4-dihydro-2H-spiro[isoquinoline-1,4′-piperidine]-1′-yl)ethyl)morpholine] was tested. Which “μ and σ1 dual binding” value did it give?
**A.** ++

**Q.** With `CCN1CCc2ccccc2C12CCN(CC(=O)N1CCS(=O)(=O)CC1)CC2` [Example 149, 2-(2-ethyl-3,4-dihydro-2H-spiro[isoquinoline-1,4′-piperidine]-1′-yl)-1-(1,1-dioxo-thiomorpholin-4-yl)ethanone] as the compound, how does the “μ and σ1 dual binding” value read?
**A.** ++

**Q.** `CCN1CCc2ccccc2C12CCN(CC(=O)N1CCC(F)CC1)CC2` [Example 150, 2-(2-ethyl-3,4-dihydro-2H-spiro[isoquinoline-1,4′-piperidine]-1′-yl)-1-(4-fluoropiperidin-1-yl)ethanone] was tested. Which Ki did it give?
**A.** < 500 nM

**Q.** `CCN1CCc2ccccc2C12CCN(CC(=O)N1CCCC(F)(F)C1)CC2` [Example 151, 1-(3,3-difluoropiperidin-1-yl)-2-(2-ethyl-3,4-dihydro-2H-spiro[isoquinoline-1,4′-piperidine]-1′-yl)ethanone] was tested. Which Ki did it give?
**A.** < 500 nM

**Q.** Which “μ and σ1 dual binding” value does the source give for `CCC(CC)N(C)C(=O)CN1CCC2(CC1)c1ccccc1CCN2CC` [Example 152, 2-(2-ethyl-3,4-dihydro-2H-spiro[isoquinoline-1,4′-piperidine]-1′-yl)-N-methyl-N-(pentan-3-yl)acetamide] here?
**A.** ++

**Q.** Which “μ and σ1 dual binding” value does the source give for `CCN1CCc2ccccc2C12CCN(CC(=O)N(C)C)CC2` [Example 153, 2-(2-ethyl-3,4-dihydro-2H-spiro[isoquinoline-1,4′-piperidine]-1′-yl)-N,N-dimethylacetamide] here?
**A.** ++

**Q.** `CCN(C(=O)CN1CCC2(CC1)c1ccccc1CCN2CC)C1CC1` [Example 154, N-cyclopropyl-N-ethyl-2-(2-ethyl-3,4-dihydro-2H-spiro[isoquinoline-1,4′-piperidine]-1′-yl)acetamide] was tested. Which Ki did it give?
**A.** < 500 nM

**Q.** `CCN(CC)C(=O)CN1CCC2(CC1)c1ccccc1CCN2CC` [Example 155, N,N-diethyl-2-(2-ethyl-3,4-dihydro-2H-spiro[isoquinoline-1,4′-piperidine]-1′-yl)acetamide] was tested. Which Ki did it give?
**A.** < 500 nM

Same assay, conditions: combined class for Ki-μ ([3H]-DAMGO, CHO-K1 membranes) and Ki-σ1 ([3H](+)-pentazocine, HEK-293 membranes)

**Q.** Which Ki does the source give for `CN1Cc2ccccc2C12CCN(CC(=O)N1CCC(F)(F)CC1)CC2` [Example 156, 1-(4,4-difluoropiperidin-1-yl)-2-(2-methylspiro[isoindoline-1,4′-piperidine]-1′-yl)ethanone] here?
**A.** ≥ 500 nM

**Q.** Which Ki does the source give for `CCN(C(=O)CN1CCC2(CC1)c1ccccc1CN2C)C(C)C` [Example 157, N-ethyl-N-isopropyl-2-(2-methylspiro[isoindoline-1,4′-piperidine]-1′-yl)acetamide] here?
**A.** ≥ 500 nM

**Q.** Which Ki does the source give for `CN1CCc2ccccc2C12CCN(CCNCCO)CC2` [Example 160, 2-(2-(2-Methyl-3,4-dihydro-2H-spiro[isoquinoline-1,4′-piperidine]-1′-yl)ethylamino)ethanol] here?
**A.** ≥ 500 nM
